Each block holds one compound with its values, some of them ahead of it.
Experiments:
Assay type in all cases: physicochemical
[1] = Suspension stability study: amoxicillin released in syrup; conditions: 30° C.
Description: Samples of particles having each of the structure from Table 11 were suspended at a concentration of 250 mg amoxicillin per 5 ml in sucrose-based syrups adjusted to different pH's, the formulations of these syrups are set forth in Table 12, were stored at 30° C. and shaken daily. Samples were removed for testing at 1 hours, 1 day, 7 days and 14 days. Encapsulated drug and undissolved particulate matter were removed from the suspensions by filtration through a 35 micron filter. The clarified syrups were diluted with mobile phase of pH 5.0 potassium phosphate buffer containing 4% acetonitrile and filtered again through a 0.45 micron filter prior to analysis by high pressure liquid chromatography (HPLC). The method of quantitating the amount of amoxicillin released in the syrup solutions was adapted from the USP method for amoxicillin described on pages 2088-2089 of Supplement 1 in USP XXII-NF XVII.

[2] = Dissolution of amoxicillin particles in simulated gastric fluid
Description: (§1) The particles were subjected to dissolution tests in simulated gastric fluid (SGF) at pH 1.2 simulated intestinal fluid (SIF) at pH 6.8. The SGF and SIF were prepared per USP specs (USP XXII-NF XVII, pp. 1788-1789, 1990). Selected samples were also tested in SGF at pH 5.0, in pH 1.2 and 5.0 acids, and in pH 6.8 buffer. The pH 1.2 and 5.0 acids were prepared the same way as the corresponding SGF's, except no enzymes were added. Similarly, the pH 6.8 buffer was prepared the same way as the SIF, except no enzyme was added. The dissolution test was conducted using apparatus 2 assembly, as specified by USP (USP XXII-NF XVII, pp. 1578-1579, 1990). The nominal capacity of the dissolution vessel was 1000 mL. A peddle was used as the stirring element at a rotational speed of 50 rpm. The temperature was maintained at 37°+0.5° C. using a circulating water bath. The solution was sampled at 0.5, 1, and 2 hours for the test in SGF, and at 1, 3, and 6 hours for the test in SIF. A 10-mL aliquot was drawn at each sampling time through a 35 micron filter. […] The particles manufactured in this example were subjected to dissolution testing as described in Example 1. Selected particle samples were subjected to sequential dissolution testing as described in Example 2. […] The column was C-18. […] The detector was UV at 230 nm. A pure amoxicillin trihydrate (AMX1), which was calibrated with an USP reference standard, was used as the working standard. For dissolution sample analysis, the standard was dissolved in the mobile phase. For zein-coated drug analysis, both the sample and the standard were dissolved by mixing with 5 mL methanol for 2-5 minutes and then diluting with the mobile phase to the desired level.

[3] = Dissolution of amoxicillin particles in simulated intestinal fluid
Description: as §1

[4] = Suspension stability study: APAP released in syrup
Description: The concept that stability in an aqueous suspension is primarily controlled by the exterior coating layer is supported by studies performed on acetaminophen (APAP). Acetaminophen was coated with various combinations of zein and Eudragit®. […] The composition of these syrups was similar to those used for the amoxicillin suspensions (compare Tables 12 and 14). A description of the manufacture of the APP27 particles is set forth above in Example 3; for APP32 particles in Example 3; for APP42 particles in Example 5; and for APP46 particles in Example 5. The particles identified in the tables as as "APAP" are uncoated acetaminophen. APP27 and 32 were suspended at 250 mg per 5 ml in a syrup at pH 8.1 and APP42 and 46 were each suspended at the same concentration in syrups at both pH 5.0 and 8.1 respectively. For analysis of samples in sucrose-based syrups, the samples were diluted 50-400 folds with water and then filtered through a 0.45 micron filter for HPLC analysis. The dilution was necessary for proper UW detection and to minimize the effect of matrix on column performance. The methanol content of the aqueous mobile phase was adjusted between 2 and 15%, pending the performance of the C-18 column used.

[5] = Dissolution of acetaminophen (APAP) particles in simulated gastric fluid (USP apparatus 2)
Description: (§2) The particles were subjected to dissolution tests in simulated gastric fluid (SGF) at pH 1.2 simulated intestinal fluid (SIF) at pH 6.8. The SGF and SIF were prepared per USP specs (USP XXII-NF XVII, pp. 1788-1789, 1990). Selected samples were also tested in SGF at pH 5.0, in pH 1.2 and 5.0 acids, and in pH 6.8 buffer. The pH 1.2 and 5.0 acids were prepared the same way as the corresponding SGF's, except no enzymes were added. Similarly, the pH 6.8 buffer was prepared the same way as the SIF, except no enzyme was added. The dissolution test was conducted using apparatus 2 assembly, as specified by USP (USP XXII-NF XVII, pp. 1578-1579, 1990). The nominal capacity of the dissolution vessel was 1000 mL. A peddle was used as the stirring element at a rotational speed of 50 rpm. The temperature was maintained at 37°+0.5° C. using a circulating water bath. The solution was sampled at 0.5, 1, and 2 hours for the test in SGF, and at 1, 3, and 6 hours for the test in SIF. A 10-mL aliquot was drawn at each sampling time through a 35 micron filter. The aliquot was then filtered again through a 0.45 micron filter for HPLC analysis to determine its drug content. An HPLC method was developed for the determination of acetaminophen in zein-coated powders and in dissolution samples from various media. Zein-coated powders were dissolved in methanol for analysis. An acetaminophen USP reference standard was used for the quantitation. For zein-coated drug analysis, the standard was prepared in methanol. For dissolution sample analysis, the standard was prepared in water. Each sample or standard solution was then filtered through a 0.45 micron filter for HPLC analysis. A C-18 column connected with an UV detector at 244 nm was used for the HPLC analysis. The mobile phase was water/methanol (85/15, v/v) at a flow rate of 1.0 mL/min. The analysis time was 18-20 min/injection.

[6] = Dissolution of acetaminophen (APAP) particles in simulated intestinal fluid (USP apparatus 2)
Description: as §2

- Percent Amoxicillin Released in Syrup ([1]; Syrup at pH 5.0, 1 Day): 9.3%
- Percent Amoxicillin Released in Syrup ([1]; Syrup at pH 5.0, 1 Hr): 7.4%
- Percent Amoxicillin Released in Syrup ([1]; Syrup at pH 5.0, 7 Days): 11.3%
- Percent Amoxicillin Released in Syrup ([1]; Syrup at pH 5.0, 14 Days): 9.0%
- Percent Amoxicillin Released in Syrup ([1]; Syrup at pH 6.5, 1 Day): 9.6%
- Percent Amoxicillin Released in Syrup ([1]; Syrup at pH 6.5, 1 Hr): 8.6%
- Percent Amoxicillin Released in Syrup ([1]; Syrup at pH 6.5, 7 Days): 14.6%
- Percent Amoxicillin Released in Syrup ([1]; Syrup at pH 6.5, 14 Days): 10.9%
- Percent Amoxicillin Released in Syrup ([1]; Syrup at pH 8.5, 1 Day): 2.8%
- Percent Amoxicillin Released in Syrup ([1]; Syrup at pH 8.5, 1 Hr): 19.5%
- Percent Amoxicillin Released in Syrup ([1]; Syrup at pH 8.5, 7 Days): 9.6%
- Percent Amoxicillin Released in Syrup ([1]; Syrup at pH 8.5, 14 Days): 5.7%
SMILES: CC1(C)S[C@@H]2[C@H](NC(=O)[C@H](N)c3ccc(O)cc3)C(=O)N2[C@H]1C(=O)O [AMX1, amoxicillin trihydrate]

- Cumulative % Release of Amoxicillin, 0.5 hr ([2]; In SGF, pH 1.2, 0.5 hr): 53%
- Cumulative % Release of Amoxicillin, 1 hr ([2]; In SGF, pH 1.2, 1 hr): 45%
- Cumulative % Release of Amoxicillin, 2 hr ([2]; In SGF, pH 1.2, 2 hr): 36%
- release of amoxicillin in simulated gastric fluid (in words) ([2]; SGF pH 1.2): rapid release
- Cumulative % Release of Amoxicillin, 1 hr ([3]; In SIF, pH 6.8, 1 hr): 83%
- Cumulative % Release of Amoxicillin, 3 hr ([3]; In SIF, pH 6.8, 3 hr): 91%
- Cumulative % Release of Amoxicillin, 6 hr ([3]; In SIF, pH 6.8, 6 hr): 93%
- release of amoxicillin in simulated intestinal fluid (in words) ([3]; SIF pH 6.8): quite rapidly
SMILES: CC1(C)S[C@@H]2[C@H](NC(=O)[C@H](N)c3ccc(O)cc3)C(=O)N2[C@H]1C(=O)O [AMX23, amoxicillin]

- Percent APAP Released in Syrup ([4]; Table 15, syrup at pH 8.1, 1 Hr): 20.0%
- Percent APAP Released in Syrup ([4]; Table 15, syrup at pH 8.1, 28 Days): 23.0%
- Percent APAP Released in Syrup ([4]; Table 16, syrup pH 5.0, 1 Day): 31.9%
- Percent APAP Released in Syrup ([4]; Table 16, syrup pH 5.0, 1 Hr): 20.2%
- Percent APAP Released in Syrup ([4]; Table 16, syrup pH 5.0, 7 Days): 26.5%
- Percent APAP Released in Syrup ([4]; Table 16, syrup pH 5.0, 14 Days): 24.9%
- Percent APAP Released in Syrup ([4]; Table 16, syrup pH 8.1, 1 Day): 27.5%
- Percent APAP Released in Syrup ([4]; Table 16, syrup pH 8.1, 1 Hr): 7.7%
- Percent APAP Released in Syrup ([4]; Table 16, syrup pH 8.1, 7 Days): 29.8%
- Percent APAP Released in Syrup ([4]; Table 16, syrup pH 8.1, 14 Days): 28.0%
SMILES: CC(=O)Nc1ccc(O)cc1 [APAP, acetaminophen]

- Cumulative % Release of APAP, 0.5 hr ([5]; In SGF, pH 1.2, 0.5 hr): 97%
- Cumulative % Release of APAP, 1 hr ([5]; In SGF, pH 1.2, 1 hr): 97%
- Cumulative % Release of APAP, 2 hr ([5]; In SGF, pH 1.2, 2 hr): 98%
- release of APAP in simulated gastric fluid (in words) ([5]; SGF pH 1.2): dissolved in gastric fluid very quickly
- Cumulative % Release of APAP, 1 hr ([6]; In SIF, pH 6.8, 1 hr): 98%
- Cumulative % Release of APAP, 3 hr ([6]; In SIF, pH 6.8, 3 hr): 101%
- Cumulative % Release of APAP, 6 hr ([6]; In SIF, pH 6.8, 6 hr): 102%
- release of APAP in simulated intestinal fluid (in words) ([6]; SIF pH 6.8): dissolved fairly rapidly
SMILES: CC(=O)Nc1ccc(O)cc1 [APP21, Acetaminophen]

Reference: patent US5160742A, “System for delivering an active substance for sustained release” (Abbott Laboratories, priority 1991, dated 1992)
